Experiment [1] deals with HT29 human colorectal carcinoma cells. The experiment in a line: Cell viability by plating efficiency (colony formation after replating). It counts as cell-based. The conditions noted are these: 40 μM, 48 h, diluted 10,000 fold and replated, colonies stained eight days later. The protocol:
FIG. 6 depicts the plating efficiency of HT29 human colorectal carcinoma cells after treatment with DMSO, 40μ M3n and 40μ M3N-PEG-2NI. HT29 cells were treated for 48 h with 40 μM M3N, 40 μM M3N-PEG-2NI or the DMSO vehicle. At the end of the treatment period, the cells were diluted 10,000 fold and replated. Eight days later colonies were stained with methylene blue.
For the further assessment of cell viability by plating efficiency, cells (2×10^6 cells/100 mm dish) from the human colorectal carcinoma cell line HT29 were treated for 48 hours with 40 μM M3N, 40 μM M3N-PEG-2NI or the DMSO vehicle. At the end of the treatment period, the cells from each dish were released by trypsinization, diluted 10,000 fold and replated into new 100 mm dishes. Eight days later colonies were stained with 0.25% methylene blue in 50% ethanol

Experiment [2] has as its system LNCaP human prostate cancer cells. The experiment can be described thus: Western blot analysis of 2-nitroimidazole induced protein adducts in cell culture. The class given is cell-based. The conditions noted are these: 80 μM, 6 hours normoxic then 6 hours hypoxic or normoxic. The method, then: Western blot analysis of 2-nitroimidazole induced protein adducts in LNCaP cell cultures. Exponentially growing LNCaP human prostate cancer cells were treated with DMSO, 80 μM M3N-PEG-2NI or Hypoxyprobe-1 in standard media for 6 hours under normoxic conditions and then under hypoxic or normoxic conditions for additional 6 hours. Afterward the media was aspirated, the cells washed and ice cold RIPA lysis buffer was added and the cells lysed on ice for 15 minutes. The samples were centrifuged and the lysate collected. Cellular proteins in the extracts were analyzed for the presence of protein adducts using standard western blotting technique. The primary antibody was PAb2627 polyclonal antibody (1:200) directed against Hydroxyprobe-1 protein adducts. The secondary antibody was Anti-Rabbit HRP conjugate (1:2000). Detection was by chemiluminescence
For orientation: In western blotting, separated proteins are transferred to a membrane and probed.

Experiment [3] relates to subcutaneous LNCaP prostate cancer cell explants. The experiment in a line: Immunofluorescence analysis of 2-nitroimidazole induced protein adducts in mouse tumor explants. It counts as in vivo, nude mice. The conditions noted are these: daily intravenous tail vein injection for three weeks. The protocol: Immunofluorescence analysis of 2-nitroimidazole induced protein adducts in mouse tumor explants. Nude mice with subcutaneous LNCaP prostate cancer cell explants were administered Hydroxyprobe-1, M3N or M3N-PEG-2NI for three weeks by daily intravenous tail vein injection with an additional injection 3 hours prior to euthanization. Tumors were removed from the euthanized mice by dissection and incubated in 30% sucrose/PBS overnight at 4° C. Excess sucrose was removed and the tissue was incubated in 30% sucrose/PBS:OCT (1:1) for 1 hour at room temperature. Afterward the tissue was frozen in 100% OCT. Frozen sections of […] were prepared and fixed in 4% PFA/PBS for 1 hour at room temperature. The sections were blocked overnight at 4° C. with 5% goat serum/PBS or at room temperature for 1 hour and then incubated with Hydroxyprobe-1 rabbit antiserum (1:200) overnight at 4° C. After three washes with PBS, the secondary antibody, mouse anti rabbit-FITC (1:1000) was added for 1 hour at room temperature. The sections were mounted using Vectashield and fluorescently imaged.

The test system of experiment [4] is 786-0 human renal adenocarcinoma cells. The experiment in a line: MTT cell viability assay, 3 days. It counts as cell-based. The conditions noted are these: normoxic conditions, 1% DMSO. The method, then:
(§1) Additional cell culture, drug treatment and cell viability assays. HT29 human colorectal carcinoma cells, 786-0 human renal adenocarcinoma cells and Hep3B human hepatocellular carcinoma cells were obtained from ATCC and maintained in culture according to their recommendations. […] After the treatment period viability of the cells was determined with the MTT cell viability assay and dose response curves were generated using the calculated values of the percentage viable cells relative to the vehicle control.

Experiment [5] concerns HT29 human colorectal carcinoma cells. The experiment can be described thus: MTT cell viability assay, 3 days. The class given is cell-based. The conditions noted are these: normoxic conditions, 1% DMSO. The method, then:
as §1
On the technique in general: Tetrazolium assays rely on reduction of a dye to a coloured formazan, in cell work by metabolically active cells.

The test system of experiment [6] is Hep3B human hepatocellular carcinoma cells. The experiment in a line: MTT cell viability assay, 3 days. The conditions noted are these: normoxic conditions, 1% DMSO. It counts as cell-based. The method, then:
as §1

Usually IC50 stands for the concentration at which inhibition is half-maximal. The low end stands for higher potency, the high end for lower potency. Regarding “tri-O-methyl NDGA [Compound M3N, reference compound]”, in experiment [1], the “Ability of HT29 cells to replicate after treatment (plating efficiency)” value is given as “able to replicate after treatment”. Moreover, the “Protein adducts by western blot (PAb2627 antibody)” value in experiment [2] is reported as “No protein adducts were detected”. Further, the “Protein adducts in tumor sections by immunofluorescence” value in experiment [3] is recorded as “little evidence of adduct formation”. Besides, the IC50 in experiment [4] is 36 to 64 µM; in experiment [5], greater than 80 µM; in experiment [6], 15 to 30 µM.

These data come from patent publication US9084779B2, “Conjugates of nitroimidazoles and their use as chemotherapeutic agents” (The Johns Hopkins University, priority 2011, dated 2015).
